In US12329774B2, “Method and composition for enhancing the quality and benefits of sleep” (priority 2020, dated 2025):
Values after ≈ are worked out from the molar mass of the structure shown. “Also recorded” adds a separate entry of the source.

Columns and labels:
MDA, SOD, CAT, GSHPx = assay: Brain antioxidant status in caffeine-induced wakefulness mice; type: in vivo; details: caffeine-induced wake mouse, result in words
Protocol: Animals were anesthetized with urethane ([…], i.p., Sigma U2500). Body temperature was maintained between 36.5 and 37° C. with homeothermic blanket. Mice were stabilized under a stereotaxic frame (World Precision Instruments, Berlin; Germany) and an incision was made on the skin along the anterior/posterior line of the skull. The left […] was removed gently with a dental drill (Marothon-3; Korea). Two Ag-AgCl sphere electrodes were placed over the left hemisphere with the reference electrode attached on the pinna. […] Brains were rapidly removed, frozen on dry ice and stored at -80° C. until analyses could be performed. Biochemical and Oxidative Stress Markers-Serum melatonin, serotonin, and dopamine were measured using ELISA kits. Brain levels of malondialdehyde (MDA) were measured by HPLC. Brain activities of superoxide dismutase (SOD), catalase (CAT) and glutathione peroxidase (GSHPx) were measured using ELISA kits for each analyte.

[1] = Observations after administration in the animal studies of Example 5 (absorption, side effects); type: in vivo, mice
From the text: Neither component in magnesium […] compositions of the invention (i.e., magnesium or L-theanine) has been reported to cause addiction.

[2] = system: pentobarbital-induced sleep; assay: Pentobarbital-induced sleep test mouse model; type: in vivo, mice; details: for Duration of sleep / Sleep latency period: pentobarbital 42 mg/kg, test article 20 mg theanine/kg per os 45 min before
Protocol: Subsequently, pentobarbital was administered intraperitoneally to induce a hypnotic state that promoted sleep. The effects on sleep of the test agents were monitored.
Pentobarbital-induced sleep was performed according to published methods with slight modifications. Mice were fasted for 24 h prior to the experiment. Each test article was dissolved or suspended in physiological saline and then was administered per os. The groups were administered doses of 20 mg/kg theanine, Mg-theanate #1 (20 mg theanine/kg), and Mg-theanate #2 (20 mg theanine/kg), respectively. Forty-five minutes later, a hypnotic dose of pentobarbital (42 mg/kg) was injected into the left side of the abdomen. After injection, the mice were placed in individual cages and subjected to measurements of sleep latency and duration. Sleep latency was defined as the period between pentobarbital injection and the loss of righting reflex (sleep onset), and sleep duration denoted the time elapsed between loss of the righting reflex and recovery.
Statistical Analyses—Data are shown as mean±SEM. Sample size was calculated based on a power of 85% and a p-value of 0.05. Given that assumption, a sample size of seven per treatment was calculated. The data were analyzed using the GLM procedure of SAS (SAS Institute: SAS User's Guide: Statistics). The treatments were compared using ANOVA and Student's unpaired t-test; P<0.05 was considered statistically significant.

[3] = system: brain waves (spike amplitude / spike frequency); assay: Electrocorticography (ECoG) of brain electrical activity in caffeine-induced wakefulness mice; type: in vivo; details: caffeine-induced wake mouse, electrical activity over 120 minutes, result in words
Protocol: Animals were anesthetized with urethane ([…], i.p., Sigma U2500). Body temperature was maintained between 36.5 and 37° C. with homeothermic blanket. Mice were stabilized under a stereotaxic frame (World Precision Instruments, Berlin; Germany) and an incision was made on the skin along the anterior/posterior line of the skull. The left […] was removed gently with a dental drill (Marothon-3; Korea). Two Ag—AgCl sphere electrodes were placed over the left hemisphere with the reference electrode attached on the pinna.
Brains were rapidly removed, frozen on dry ice and stored at −80° C. until analyses could be performed.

[4] = system: brain serotonin, dopamine and melatonin; assay: Brain neurotransmitter levels by ELISA in caffeine-induced wakefulness mice; type: in vivo; details: caffeine-induced wake mouse, result in words
Solubility in water = type: physicochemical
[5] = system: GABAA-R2, GABAB-R1, GABAB-R2, 5-HT1A, GluA1, GluN1, GluN2A; assay: Western blot of GABA and other neurotransmitter receptors in caffeine-induced wakefulness mice; details: caffeine-induced wake mouse; result in words; listed as magnesium di-L-theanate compositions
[6] = system: Bax, Bcl-2, Caspase-3, eNOS, iNOS; assay: Western blot of brain cell survival indicators in caffeine-induced wakefulness mice; details: caffeine-induced wake mouse; result in words; listed as magnesium di-L-theanate
[7] = system: caffeine-induced wakefulness mice; assay: Caffeine-induced wakefulness mouse model: sleep latency, sleep duration, number falling asleep; type: in vivo
Protocol: Animals and Experimental design: Seven male BALB/c mice per treatment arm (age: 8 weeks, weight: […]) were housed in a controlled environment with a 12:12-h light-dark cycle at 22° C. and were provided with mice chow and water ad libitum. All experiments were conducted under the National Institutes of Health's Guidelines for the Care and Use of Laboratory Animals and approved by the Ethics Committee of the Medipol University.
Drugs and materials: Study product was provided by Nutrition21 LLC (Mg-Theanate #1=lot AA209-122-20, Mg-Theanate #2=lot BLS-DN 13). […] The concentration of each drug solution was adjusted so that the volume injected was constant at 1.0 ml/kg BW. All drug solutions were prepared fresh daily, and were administered intraperitoneally (i.p.). […]

Storage stability = type: physicochemical; details: temperature range, low relative humidity; result in words; listed as Magnesium di-L-theanate compositions
[8] = listed as magnesium di-L-theanate compositions
[9] = result in words, listed as magnesium di-L-theanate composition
[10] = result in words, listed as magnesium di-L-theanate compositions
[11] = caffeine-induced awake mouse model, result in words
[12] = caffeine-induced wake mouse, caffeine alone or + test article (20 mg theanine/kg)

CCNC(=O)CCC(N)C(=O)O [Mg Theanate Composition, magnesium di-L-theanate]
Levels of protective enzymes (SOD, CAT, GSHPx) (MDA, SOD, CAT, GSHPx): protective enzymes were decreased, the adverse changes were not as great as those shown by
Level of MDA (indicator of oxidative stress) (MDA, SOD, CAT, GSHPx; [8]): decrease in oxidative stress
Levels of protective enzymes (SOD, CAT, GSHPx) (MDA, SOD, CAT, GSHPx; [8]): restoration of brain anti-oxidant status
Adverse effects on activities during or immediately after wakefulness [1]: No adverse effects were observed
Side effects during or after treatment [1]: No side effects were observed
Absorption and distribution following administration ([1]; result in words): rapidly absorbed and distributed to the brain
Animals that fell asleep (10-minute period following pentobarbital administration) ([2]; 20 mg theanine/kg per os): over 50%
Likelihood to fall asleep within the 10 minute limit as compared to theanine ([2]; 20 mg theanine/kg per os, result in words): significantly more likely to fall asleep
Duration of sleep [2, 9]: significantly increased
Sleep latency period [2, 9]: significantly reduced
Duration of sleep [2, 10]: significantly and more effectively increased
Sleep latency period [2, 10]: significantly and more effectively decreased
Amplitude of brain waves [3]: increased significantly and was maintained throughout the 120 minute study period. Spike
Spike frequency of electrical activity in the brain [3]: frequency was significantly reduced and comparable to caffeine/theanine-treated animals.
Amplitude of brain waves [3, 8]: significant increase
Spike frequency of electrical activity in the brain [3, 8]: significant reduction
Neurotransmitter levels (brain serotonin, dopamine, and melatonin) [4]: animals, levels of all three neurotransmitters were more significantly restored to control
Neurotransmitter levels (brain serotonin, dopamine, and melatonin) [4, 8]: significant restoration
solubility (Solubility in water): ~650 mg/mL (≈ 3730 mM)
GABA and other neurotransmitter receptors (receptor levels) [5]: significant diminution in the caffeine-related reduction
Brain cell survival (Bax, Bcl-2, Caspase-3, eNOS, and iNOS, indicators of cell damage) [6]: significant normalization
Time after administration at which beneficial enhancement of sleep properties was exhibited ([7]; as early as): about 30 minutes
Number of animals falling asleep as compared to L-theanine-treated animals [7, 11]: significant increase
Sleep duration as compared to L-theanine itself [7, 11]: significant lengthening and normalization
Sleep latency period as compared to L-theanine itself [7, 11]: significant decrease
Number of animals falling asleep (share of the group that fell asleep) [7, 12]: + Mg Theanate Composition: 70% of the group fell asleep
Sleep duration period [7, 12]: + Mg Theanate Composition: The sleep duration period of about 50 minutes was greatly
Sleep latency period [7, 12]: slightly more than 1 minute, a significantly shorter period than found in caffeine-treated minutes
Storage stability (Storage stability): stable during storage under conditions having temperatures ranging from −80 °C to +120 °C at low relative humidity; also recorded: greatest at temperatures from −80 °C to +60 °C at low relative humidity
